The values below come from ChEMBL document CHEMBL6071150, “From lab to clinic: The discovery and optimization journey of PI3K inhibitors” (Eur J Med Chem, 2024).

One series relates to MCF7. Description: cells. Particulars: Homo sapiens, MCF7, 96 h.
For series [1], the target named is Phosphatidylinositol 4,5-bisphosphate 3-kinase catalytic subunit alpha isoform (Homo sapiens, UniProt P42336). Description: Inhibition of GST-tagged human recombinant PI3K-p110alpha extracted from baculovirus-infected Sf9 insect cells incubated for 1 hr by microbeta counter analysis.
Phosphatidylinositol 4,5-bisphosphate 3-kinase catalytic subunit alpha isoform, sequence (P42336 whole entry, canonical isoform): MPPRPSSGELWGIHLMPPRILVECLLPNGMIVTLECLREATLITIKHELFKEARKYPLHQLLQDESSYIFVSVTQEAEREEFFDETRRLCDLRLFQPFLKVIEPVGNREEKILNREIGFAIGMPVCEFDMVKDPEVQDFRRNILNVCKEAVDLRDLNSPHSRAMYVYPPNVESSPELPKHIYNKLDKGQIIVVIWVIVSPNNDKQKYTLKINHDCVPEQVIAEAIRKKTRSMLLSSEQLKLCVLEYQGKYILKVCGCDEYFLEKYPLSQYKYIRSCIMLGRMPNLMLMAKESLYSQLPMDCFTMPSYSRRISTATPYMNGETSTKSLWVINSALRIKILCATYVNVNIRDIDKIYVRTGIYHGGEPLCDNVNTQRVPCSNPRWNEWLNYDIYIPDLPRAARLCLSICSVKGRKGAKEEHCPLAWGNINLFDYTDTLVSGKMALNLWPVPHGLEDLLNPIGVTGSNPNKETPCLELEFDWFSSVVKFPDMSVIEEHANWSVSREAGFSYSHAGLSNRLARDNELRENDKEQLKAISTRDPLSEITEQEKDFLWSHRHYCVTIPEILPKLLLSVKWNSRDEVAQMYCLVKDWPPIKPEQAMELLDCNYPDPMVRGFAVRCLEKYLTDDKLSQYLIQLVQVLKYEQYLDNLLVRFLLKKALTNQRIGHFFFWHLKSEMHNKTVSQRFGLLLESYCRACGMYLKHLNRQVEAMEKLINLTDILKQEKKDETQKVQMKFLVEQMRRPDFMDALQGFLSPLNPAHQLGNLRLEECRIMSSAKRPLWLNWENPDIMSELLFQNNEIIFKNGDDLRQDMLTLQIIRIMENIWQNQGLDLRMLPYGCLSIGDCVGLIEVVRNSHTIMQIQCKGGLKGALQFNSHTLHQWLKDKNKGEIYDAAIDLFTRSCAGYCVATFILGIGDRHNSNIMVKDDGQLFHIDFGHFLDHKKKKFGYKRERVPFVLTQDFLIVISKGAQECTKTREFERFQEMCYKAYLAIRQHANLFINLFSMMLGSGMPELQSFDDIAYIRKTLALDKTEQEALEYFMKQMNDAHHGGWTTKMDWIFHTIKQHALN
A short description of series [2]: Clearance in rat liver microsomes. The class given is ADME, Microsome. (Liver microsomes are a subcellular fraction often used to study metabolism.)
A further series concerns the target CYP450 (Homo sapiens, UniProt P04798+P05177+P05181+P08684+P10632+P10635+P11509+P11712+P13584+P20813+P20815+P20853+P24462+P24903+P33260+P33261+P51589+P78329+P98187+Q02928+Q08477+Q16678+Q16696+Q5TCH4+Q6VVX0+Q7Z449+Q8TAV3+Q96SQ9+Q9HB55). Description: Inhibition of CYP450 (unknown origin). In kind it is ADME, protein assay.
The nature of series [3]: AUC in mouse plasma at 5 mg/kg, po. The class given is ADME, organism-based. Particulars: in vivo.
Series [4] can be described thus: Clearance in mouse at 1 mg/kg, iv. The class given is ADME, organism-based. To be noted: in vivo.
The nature of series [5]: Oral bioavailability in mouse plasma at 50 mg/kg by LC-MS/MS analysis. In kind it is ADME, organism-based.
The nature of series [6]: Cmax in mouse plasma at 5 mg/kg, po. In kind it is ADME, organism-based.
Series [7] is described as follows: Oral bioavailability in mouse plasma at 5 mg/kg by LC-MS/MS analysis. In kind it is ADME, organism-based.
Series [8] is described as follows: Cmax in mouse plasma at 50 mg/kg, po. The class given is ADME, organism-based.
A short description of series [9]: Volume of distribution at steady state in mouse at 1 mg/kg, iv. The class given is ADME, organism-based. To be noted: in vivo, read-out: Vdss.
Series [10] in a line: Plasma protein binding in mouse. The class given is ADME, cell-free. To be noted: read-out: PPB (converted).
The nature of series [11]: AUC in mouse plasma at 50 mg/kg, po. The class given is ADME, organism-based. To be noted: in vivo.
Series [12] in a line: Cmax in mouse at 1 mg/kg, iv. The class given is ADME, organism-based. To be noted: in vivo.
The nature of series [13]: Cmax in rat at 3.4 mg/kg, po. In kind it is ADME, organism-based. To be noted: in vivo.
The nature of series [14]: Intrinsic clearance in rat liver microsomes. In kind it is ADME, Microsome. To be noted: read-out: CLH (converted).
Series [15] is described as follows: Oral bioavailability in human. To be noted: in vivo. In kind it is ADME, organism-based.
Series [16] is described as follows: Half life in monkey. The class given is ADME, Macaca mulatta. Particulars: rhesus monkey, in vivo.
Series [17] in a line: Metabolic stability in mouse liver microsomes assessed as half life. In kind it is ADME, Microsome.
For a further series, the target named is Cytochrome P450 3A4 (Homo sapiens, UniProt P08684). The experiment in a line: Inhibition of CYP3A4 (unknown origin). In kind it is ADME.
Cytochrome P450 3A4, sequence (P08684 whole entry): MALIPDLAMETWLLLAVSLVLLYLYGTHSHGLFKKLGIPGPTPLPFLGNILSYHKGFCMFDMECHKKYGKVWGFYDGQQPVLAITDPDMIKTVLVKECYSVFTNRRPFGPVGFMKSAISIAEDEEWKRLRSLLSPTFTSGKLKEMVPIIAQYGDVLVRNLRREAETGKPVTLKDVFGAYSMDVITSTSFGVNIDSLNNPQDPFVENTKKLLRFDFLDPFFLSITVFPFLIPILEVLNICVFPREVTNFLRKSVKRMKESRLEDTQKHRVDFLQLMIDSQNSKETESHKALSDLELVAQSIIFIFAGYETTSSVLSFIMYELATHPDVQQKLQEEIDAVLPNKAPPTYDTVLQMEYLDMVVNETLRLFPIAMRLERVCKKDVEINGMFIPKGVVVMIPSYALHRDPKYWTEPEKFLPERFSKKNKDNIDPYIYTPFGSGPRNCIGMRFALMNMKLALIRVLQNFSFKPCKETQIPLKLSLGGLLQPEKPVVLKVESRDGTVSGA
Series [18] is described as follows: Oral bioavailability in mouse. Particulars: in vivo. In kind it is ADME, organism-based.
The nature of series [19]: Oral bioavailability in Dog. The class given is ADME, organism-based, Canis lupus familiaris. Particulars: in vivo.
Series [20] in a line: Oral bioavailability in rat at 1 mg/kg. The class given is ADME, organism-based. Particulars: in vivo.
Series [21] can be described thus: Oral bioavailability in mouse at 1 mg/kg. The class given is ADME, organism-based. Particulars: in vivo.
Series [22] in a line: Oral bioavailability in rat at 3 mg/kg by LC-MS/MS analysis. In kind it is ADME, organism-based. Particulars: in vivo.
The nature of series [23]: AUC (0 to t) in SCID mouse at 3 mg/kg, iv. In kind it is ADME, organism-based. Particulars: in vivo.
The nature of series [24]: Cmax in SCID mouse at 3 mg/kg, iv measured upto 24 hrs by LC/MS-MS analysis. In kind it is ADME, organism-based. To be noted: in vivo.
Series [25] in a line: Half life in SCID mouse at 3 mg/kg, po. In kind it is ADME, organism-based. To be noted: in vivo.
Series [26] can be described thus: Oral bioavailability in mouse at 3 mg/kg by LC-MS/MS analysis. In kind it is ADME, organism-based. To be noted: in vivo.
Series [27] is described as follows: Volume of distribution at steady state in mouse at 3 mg/kg, iv. The class given is ADME, organism-based. Particulars: in vivo.
Series [28] is described as follows: Oral bioavailability in Beagle dog at 3 mg/kg by LC-MS/MS analysis. The class given is ADME, organism-based, Canis lupus familiaris. Particulars: in vivo.

For orientation: IC50 means the concentration at which inhibition is half-maximal. As for `Cc1c(CN2CCN(C(=O)[C@@H](C)O)CC2)sc2c(N3CCOCC3)nc(-c3cnc(N)nc3)nc12`, the 50% inhibitory concentration (IC50) in the series with MCF7 worked out at 356 nM.
Regarding `Cc1nc(NC(=O)N2CCC[C@H]2C(N)=O)sc1-c1ccnc(Nc2ccccc2C(C)(C)C)n1`, the figures for the IC50 (in [1]; at CYP450) were 7.5 nM and above 10 µM, respectively. This compound displayed a CLH in [2] of 62 µL/min/µg.
By AUC is commonly meant the area under the concentration-time curve, a measure of exposure. Broadly, the clearance is a measure of how efficiently the substance is removed, as volume per time. As usually defined, the bioavailability is dose-corrected exposure relative to a reference, in per cent. What is called Cmax is the maximum level reached in the sampled fluid or tissue. For the compound `C[C@H](NC(=O)c1c(N)ccc2cccnc12)c1cc2cccc(Cl)c2c(=O)n1-c1ccccc1`, the figures for the AUC in [3] and in series [11] were 10 µM·h and 121 µM·h, respectively. In series [4], this compound showed a clearance of 9.2 mL/min/kg. In addition, the bioavailability in series [5] was 66%; in series [7] it was 56%. Further, the peak concentration (Cmax) in [6] stood at 2000 nM; in series [8], 24 µM. For the same compound, the Vd in series [9] was 1.7 L/kg. Further, the fraction unbound in series [10] is 0.29.
`Cc1nc(NC(=O)N2CCC[C@H]2C(N)=O)sc1-c1ccnc(C(C)(C)C(F)(F)F)c1` [ALPELISIB] returned a CLH in series [2] of 29 µL/min/µg. In addition, the maximum concentration (Cmax) turned out to be 520 nM in series [12] and 190 nM in [13].
As to `C[C@H](Nc1ncnc2[nH]cnc12)c1cc2ccc(F)cc2nc1-c1ccccn1` [AMG-319], the CLint scaled in series [14] was 5.67 mL/min/kg. In [15], the bioavailability stood at 54%.
Take `Cc1c(CN2CCN(C(=O)[C@H](C)O)CC2)sc2c(N3CCOCC3)nc(-c3cnc(N)nc3)nc12` [APITOLISIB]: the IC50 in the series with MCF7 is 255 nM.
In general, half-life refers to the time needed for the level to fall by half in the phase considered. For the compound `C[C@H](NC(=O)c1c(N)nn2cccnc12)c1cc2cccc(C#Cc3cnn(C)c3)c2c(=O)n1-c1ccccc1` [EGANELISIB], the half-life was 258 min in [16] and above 360 min in series [17]. Also, at Cytochrome P450 3A4, the IC50 was above 20 µM.
Turning to `COc1ncc(-c2ccc3nccc(-c4ccnnc4)c3c2)cc1NS(=O)(=O)c1ccc(F)cc1F` [OMIPALISIB], the bioavailability in series [18] was 100%; in series [19], 80%.
As for `CC1(C)OCCn2c1nc1c(N3CCOCC3)nc(-c3cnc(N)nc3)nc12` [PAXALISIB], the bioavailability in series [20] was found to be 77%; in [21] it was 75%.
The term Vdss denotes the apparent volume that relates the amount in the body to the concentration in plasma or blood. For the compound `C[C@H]1Cc2ccccc2N1C(=O)Cc1nc(N2CCOCC2)cc(=O)[nH]1` [SAR-260301], the values for the bioavailability in series [22], in [26] and in [28] were 70%, 30% and 67%, respectively. In addition, the AUCt in series [23] came out at 600 h/ng/mL. The Cmax in series [24] was 1870 ng/mL. Moreover, the half-life in [25] is 84 min. The compound also gave a volume of distribution (Vdss) in series [27] of 1 L/kg.
